Experimental data taken from patent US6630312B2, “Method for identifying compounds for treatment of insulin resistance” (Joslin Diabetes Center, Inc., priority 1999, dated 2003).

Tests used:
IRS-2 = experiment: Tyrosine phosphorylation of IRS-2 in Fao hepatoma cells, TNF-α induced 'insulin resistance'; format: cell-based; conditions: for Reversal of TNF-α induced 'insulin resistance': doses known to have potent biological effects, cells not restated; for Tyrosine-phosphorylation of IRS-2: Fao hepatoma cells
[1] = test system: isolated tissues and cultured cells; conditions: cited from earlier work
IKKβ [2] = conditions: without activating upstream elements in the TNF-α signaling cascade; cited from earlier work
Insulin receptor (IR) = experiment: Insulin receptor tyrosine autophosphorylation in tissues from treated Zucker rats; format: in vivo, rat; conditions: liver and muscle of treated Zucker rats vs untreated
Description: (§1) Tissues were isolated from treated animals and insulin signaling proteins were analyzed. […] A cascade consisting of insulin receptor (IR), insulin-receptor substrate (IRS) proteins, PI 3-kinase and 3-phosphoinositide-dependent protein kinase-1 (PDK1), is required for maintenance of metabolic homeostasis.

ob/+ mice = experiment: Effects of high-dose aspirin in ob/+ mice (GTT); format: in vivo, mouse; conditions: aspirin treatment, 120 mg/kg/day; intraperitoneal GTT
Excerpt: (§2) Ob/ob mice are leptin deficient.

IKKβ [3] = molecular target: T1, IKKβ (Homo sapiens, UniProt O14920); conditions: Yin et al (1998); cited from earlier work
T1 sequence (O14920 1-756): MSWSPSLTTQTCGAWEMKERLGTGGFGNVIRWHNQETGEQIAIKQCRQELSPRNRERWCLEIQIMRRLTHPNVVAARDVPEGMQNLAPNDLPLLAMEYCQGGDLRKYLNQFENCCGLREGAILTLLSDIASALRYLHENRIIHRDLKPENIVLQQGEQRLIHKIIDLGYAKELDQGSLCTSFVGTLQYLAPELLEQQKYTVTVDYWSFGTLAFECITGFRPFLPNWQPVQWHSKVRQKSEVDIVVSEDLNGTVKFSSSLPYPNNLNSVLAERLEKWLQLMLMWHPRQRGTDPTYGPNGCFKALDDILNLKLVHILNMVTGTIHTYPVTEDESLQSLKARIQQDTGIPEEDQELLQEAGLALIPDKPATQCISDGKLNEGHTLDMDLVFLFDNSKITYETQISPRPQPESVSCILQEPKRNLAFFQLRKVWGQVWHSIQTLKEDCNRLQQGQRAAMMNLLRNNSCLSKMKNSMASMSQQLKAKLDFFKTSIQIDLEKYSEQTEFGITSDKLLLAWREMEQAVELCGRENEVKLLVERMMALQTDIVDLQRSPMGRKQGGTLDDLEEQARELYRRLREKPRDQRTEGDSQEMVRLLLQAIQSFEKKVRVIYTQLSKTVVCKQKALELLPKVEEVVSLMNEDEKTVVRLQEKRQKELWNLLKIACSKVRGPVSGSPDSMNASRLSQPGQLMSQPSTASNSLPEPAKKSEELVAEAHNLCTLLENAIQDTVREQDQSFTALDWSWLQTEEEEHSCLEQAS

IRS-1 [4] = experiment: Insulin-stimulated tyrosine phosphorylation of IRS-1 in 3T3-L1 adipocytes made 'insulin resistant'; format: cell-based
Description: (§3) Culture cells were used as follows to investigate the mechanisms relating to salicylate treatment to the in vivo reversal of insulin resistance. TNF-α treatment of 3T3-L1 adipocytes induced ‘insulin resistance’, as judged by significant decreases in insulin-stimulated tyrosine phosphorylation of IR β-subunit (42±11%) and IRS-1 (37±9%). TNF-α mediated ‘insulin resistance’ was reversed by pretreatment with high-dose (5 mM) aspirin. IR and IRS-1 phosphorylation levels were restored to 126±24% and 136±35%, respectively, compared to untreated controls; IR and IRS-1 protein levels were unchanged in TNF-α and aspirin-treated cells. TNF-α activates a cascade of adapters and kinases, including TRADD, RIP, TRAF2, and TAB1, which act upstream of JNK, p38 MAPK, and the IKK complex. Okadaic acid and calyculin A, two phosphatase inhibitors, also activate IKKβ (DiDonato et al. (1997) Nature 388:548; Harhaj & Sun (1997) J Biol Chem 272:5409), but without activating upstream elements in the TNF-α signaling cascade. Okadaic acid and calyculin A also induce ‘insulin resistance’ in isolated tissues and cultured cells (Robinson et al (1993) Am J Physiol 265:E36; Paz et al (1997) J. Biol Chem 272:29911). Therefore, it was determined whether aspirin would reverse ‘insulin resistance’ caused by these inhibitors. Marked reductions in insulin-stimulated IR (29±12%) and IRS-1 (16±2%) tyrosine-phosphorylation were prevented by incubating the cells with high-dose aspirin (109±15% and 93±25%, respectively).
(§4) Hyperglycemia- and hyperinsulinemia-induced insulin resistance in diabetic subjects can be mimicked in cell culture by incubation with high concentrations of glucose and insulin. Potential mechanisms include glucose-induced activation of PKC, which can activate IKK. […] Concurrent treatment with aspirin restored IR (107±23%) and IRS-1 (90±23%) tyrosine-phosphorylation to levels seen in cells incubated at 5.5 mM glucose. […] Protein levels were restored by concurrent treatment with aspirin. Serine phosphorylation of IκB leads to ubiquitination and proteosome-mediated degradation. IRS proteins may be degraded by a similar route and in both cases, downregulation was inhibited by aspirin.

Zucker fa/fa rats = experiment: Effects of high-dose salicylates in Zucker fa/fa rats (GTT, ITT, serum lipids, ALT); conditions: for Food intake, blood chemistry, or body weight: Zucker fa/fa rats
Excerpt: as §2

IR, IRS-2 and AKT = experiment: Insulin-stimulated activation of IR, IRS-2 and AKT in HEK293 cells expressing IKKβ, IKKα or NIK; format: cell-based; conditions: treatment with aspirin
Excerpt: To directly test the potential role of IKK, The IKKα and IKKβ catalytic subunits and NIK, an upstream activator, were expressed in HEK293 cells. Insulin stimulated the activation of IR, IRS-2 and AKT in these cells. Activation was attenuated by expression of IKKβ, IKKα or NIK. Attenuated activation was reversed by treatment with aspirin.

IR β-subunit = experiment: Insulin-stimulated tyrosine phosphorylation of IR in 3T3-L1 adipocytes made 'insulin resistant'; format: cell-based; conditions: for IR and IRS-1 protein levels: TNF-α and aspirin-treated cells
Description: as §3, §4

AKT kinase = experiment: Insulin-stimulated AKT phosphorylation in tissues from treated Zucker rats; format: in vivo, rat; conditions: liver and muscle of treated Zucker rats vs untreated
Description: as §1

Sprague-Dawley rats = experiment: Insulin sensitivity in Sprague-Dawley rats on aspirin treatment; format: in vivo, rat; conditions: rats not insulin resistant, obese, or diabetic
cyclooxygenases = conditions: Furst (1994); cited from earlier work
IRS-1 [5] = experiment: Electrophoretic mobility of IRS-1 from livers of treated animals; format: in vivo; conditions: animal livers; suggests decrease in Ser/Thr phosphorylation
Excerpt: In cultured cells, IRS proteins are especially prone to phosphorylation on serine and threonine residues, which opposes the effect of tyrosine phosphorylation by inhibiting signaling.

ob/ob mice = conditions: 120 mg/kg/day; for Food intake, blood chemistry, or body weight: ob/ob mice
Description: FIGS. 1A-H: In vivo effects of aspirin in Zucker fatty rats and ob/ob mice. (panels A-F) Twelve-week-old male Zucker rats (Harlan) and (panels G,H) eight-week-old ob/ob and ob/+ mice (Jackson Labs) were given free access to food and water. […] For glucose tolerance tests (GTT), glucose (2.0 g/kg) was administered by oral gavage (rats) or intraperitoneal injection (mice) after an overnight fast. (panels A,C) Blood glucose and (panels B,D) serum insulin levels were determined during oral glucose tolerance tests in (panels A,B) six Zucker fa/fa rats and (panels C,D) six fa/+ rats. For insulin tolerance tests (ITT) in (panel E) six Zucker fa/fa rats, insulin (2.0 U/kg) was injected intraperitoneally after an overnight fast. (panel F) Cholesterol (Chol), triglyceride (TG), long chain free fatty acid (FFA), and liver alanine aminotransferase (ALT) levels were measured in sera from fasting Zucker fa/fa rats. Glucose tolerance tests were conducted with (panel G) ten ob/ob mice and (panel H) ten ob/+ mice. Data are mean±SEM values; some SEM values are within the area of the symbols.
A determination of the effects of high-dose salicylates on obese rodents with severe insulin resistance was performed as follows. Twelve-week-old male Zucker fa/fa rats and eight-week-old male ob/ob mice were treated for 3-4 weeks with 120 mg/kg/day of aspirin or salicylate, administered by continuous subcutaneous infusion; this dose is roughly equivalent to 5-10 g/day in humans.

Zucker fa/+ rats = experiment: Effects of high-dose aspirin in Zucker fa/+ rats (oral GTT); format: in vivo, rat; conditions: 120 mg/kg/day
Excerpt: as §2

[6] = 120 mg/kg/day continuous subcutaneous infusion
Excerpt: as §2

IR = experiment: Insulin-stimulated IR activation in untransfected 293 cells; format: cell-based; conditions: TNF-α treatment
Excerpt: (§5) However, TNF-α is a potential mediator of acquired insulin resistance (Lang et al. (1992) Endocrinology 130:43; Feinstein et al. (1993) J Biol Chem 268:26055; Hotamisligil et al. (1993) Science 259:87; Hotamisligil et al. (1994) J Clin Invest 94:1543). TNF-α activates the IKK complex. TNF-α treatment of untransfected 293 cells reduced insulin-stimulated IR activation to 29±2% of untreated controls. Expression of kinase deficient, dominant inhibitory IKKα(K44A) or IKKβ(K44A) reversed TNF-α-inhibited IR activation. In fact, dominant-inhibitory IKKβ caused a 60% increase in insulin-stimulated IR tyrosine-phosphorylation over controls, whether or not cells had been treated with TNF-α. […] There is in vivo support for this, as well.

AKT = AKT activation in 293 cells; format: cell-based; conditions: TNF-α treatment
Excerpt: as §5

[7] = 3T3-L1 adipocytes overnight in 25 mM glucose and 10 nM insulin, concurrent aspirin, relative to cells at 5.5 mM glucose
[8] = 3T3-L1 adipocytes, TNF-α, pretreatment with 5 mM aspirin
[9] = phosphatase inhibitor-induced 'insulin resistance', cells incubated with high-dose aspirin
[10] = 3T3-L1 adipocytes, TNF-α treatment alone

Compound: CS(=O)(=O)Nc1ccc([N+](=O)[O-])cc1OC1CCCCC1 [NS-398]
- Reversal of TNF-α induced 'insulin resistance' (IRS-2): no effect

Compound: C=C1[C@@H](O)[C@@H]2O[C@]3(CC[C@H](/C=C/[C@@H](C)[C@@H]4CC(C)=C[C@@]5(O[C@H](C[C@@](C)(O)C(=O)O)CC[C@H]5O)O4)O3)CC[C@H]2O[C@@H]1[C@@H](O)C[C@H](C)[C@H]1O[C@@]2(CCCCO2)CC[C@H]1C [Okadaic acid]
- 'Insulin resistance' in isolated tissues and cultured cells [1]: induce
- Effect on IKKβ (IKKβ [2]): activate

Compound: CC(=O)Oc1ccccc1C(=O)O [aspirin]
- Tyrosine-phosphorylation of IRS-2 (IRS-2; TNF-α plus drug): 115±31%
- Insulin receptor (IR) tyrosine autophosphorylation (Insulin receptor (IR)): Significantly increased stimulation
- Glucose intolerance (ob/+ mice): normalized
- Inhibition of IKKβ, relative potency (IKKβ [3]): equipotent inhibitors
- Insulin-stimulated IRS-1 tyrosine-phosphorylation (IRS-1 [4]; [7]): 90±23%
- IRS-1 phosphorylation level compared to untreated controls (IRS-1 [4]; [8]): 136±35%
- Insulin-stimulated IRS-1 tyrosine-phosphorylation (IRS-1 [4]; [9]): 93±25%
- Reduced electrophoretic mobility of IRS-1 due to calyculin A-induced phosphorylation (IRS-1 [4]; with aspirin): reversed
- Insulin levels during glucose tolerance test (Zucker fa/fa rats; 120 mg/kg/day continuous subcutaneous infusion, 3-4 weeks, oral GTT): Concomitant reductions
- Fasting blood glucose values and glucose tolerance (Zucker fa/fa rats; 120 mg/kg/day continuous subcutaneous infusion, 3-4 weeks, oral GTT, compared to untreated controls): improved
- Food intake, blood chemistry, or body weight (Zucker fa/fa rats; 120 mg/kg/day): Neither aspirin nor salicylate affected
- Free fatty acid (FFA) levels (Zucker fa/fa rats; after the treatment period, aspirin 120 mg/kg/day): 1.1 ± 0.2 mM
- Fasting triglyceride levels (Zucker fa/fa rats; after three weeks of aspirin treatment, 120 mg/kg/day): 90 ± 58 mg/dL
- Cholesterol levels (Zucker fa/fa rats; fasting serum, aspirin 120 mg/kg/day): unaffected
- Blood glucose in insulin tolerance test (Zucker fa/fa rats; intraperitoneal insulin 2.0 U/kg after overnight fast, aspirin-treated animals): dramatic decreases
- Time to drop in FFA levels after aspirin initiation (Zucker fa/fa rats; preceding reductions in triglyceride and glucose levels): ≤ 1 week
- Serum levels of liver enzyme alanine aminotransferase (ALT) (hepatotoxicity) (Zucker fa/fa rats; throughout the studies): normal, low
- Activation of IR, IRS-2 and AKT attenuated by expression of IKKβ, IKKα or NIK (IR, IRS-2 and AKT): reversed
- Insulin-stimulated IR tyrosine-phosphorylation (IR β-subunit; [7]): 107±23%
- IR and IRS-1 protein levels (IR β-subunit; 3T3-L1 adipocytes): unchanged
- IR phosphorylation level compared to untreated controls (IR β-subunit; [8]): 126±24%
- Protein levels of insulin signaling proteins downregulated by high glucose and insulin (IR β-subunit; 3T3-L1 adipocytes, concurrent treatment with aspirin): restored
- Insulin-stimulated IR tyrosine-phosphorylation (IR β-subunit; [9]): 109±15%
- Insulin-stimulated AKT phosphorylation (AKT kinase): increased
- Insulin sensitivity (Sprague-Dawley rats): increased insulin sensitivity
- Potency towards the cyclooxygenases, aspirin relative to sodium salicylate (cyclooxygenases): ~100 fold
- Electrophoretic mobility of IRS-1 (IRS-1 [5]): increased
- Fasting blood glucose values and glucose tolerance (ob/ob mice; 3-4 weeks, intraperitoneal GTT, compared to untreated controls, every time point): significantly improved
- Food intake, blood chemistry, or body weight (ob/ob mice): Neither aspirin nor salicylate affected
- Insulin levels during glucose tolerance test (Zucker fa/+ rats; aspirin-treated group): Significantly lower
- Glucose levels during glucose tolerance test (Zucker fa/+ rats; following aspirin treatment): marginally reduced

Compound: COC[C@@H]([C@H](O)[C@H](O)C(=O)NCC[C@H](C)c1nc(/C=C/C[C@@H]2O[C@]3(C[C@@H](O)[C@@H]2C)O[C@H]([C@H](C[C@H](O)[C@H](C)[C@H](O)[C@H](C)/C=C(C)/C(C)=C/C=C/C(C)=C\C#N)OC)[C@H](OP(=O)(O)O)C3(C)C)co1)N(C)C [calyculin A]
- 'Insulin resistance' in isolated tissues and cultured cells [1]: induce
- Effect on IKKβ (IKKβ [2]): activate

Compound: CC(C)Cc1ccc(C(C)C(=O)O)cc1 (centres unmarked) [ibuprofen]
- Reversal of TNF-α induced 'insulin resistance' (IRS-2): Neither ibuprofen nor naproxen, two NSAID inhibitors of COX1 and COX2, reversed

Compound: COc1ccc2cc([C@H](C)C(=O)O)ccc2c1 [naproxen]
- Reversal of TNF-α induced 'insulin resistance' (IRS-2): Neither ibuprofen nor naproxen, two NSAID inhibitors of COX1 and COX2, reversed

Compound: O=C([O-])c1ccccc1O.[Na+] [salicylate, sodium salicylate]
- Tyrosine-phosphorylation of IRS-2 (IRS-2; TNF-α plus drug): 89±8%
- Insulin receptor (IR) tyrosine autophosphorylation (Insulin receptor (IR)): Significantly increased stimulation
- Inhibition of IKKβ, relative potency (IKKβ [3]): equipotent inhibitors
- Food intake, blood chemistry, or body weight (Zucker fa/fa rats; 120 mg/kg/day): Neither aspirin nor salicylate affected
- Insulin-stimulated AKT phosphorylation (AKT kinase): increased
- Electrophoretic mobility of IRS-1 (IRS-1 [5]): increased
- Food intake, blood chemistry, or body weight (ob/ob mice): Neither aspirin nor salicylate affected
- Serum salicylate levels, mean [6]: 0.81 ± 0.25 mM
- Serum salicylate levels, range [6]: 0.3 to 1.3 mM

Compound: TNF-α
- Insulin-stimulated IR activation, of untreated controls (IR): 29±2%
- Tyrosine-phosphorylation of IRS-2 (IRS-2; TNF-α treatment alone): 39±9%
- AKT activation (AKT): 18±15%
- Insulin-stimulated tyrosine phosphorylation of IRS-1 (IRS-1 [4]; [10]): 37±9%
- IR and IRS-1 protein levels (IR β-subunit; 3T3-L1 adipocytes): unchanged
- Insulin-stimulated tyrosine phosphorylation of IR β-subunit (IR β-subunit; [10]): 42±11%
